Where two headings read alike, the source gives them in different places. Square brackets hold non-standard residues; d marks the D form. Peptide text beside a SMILES is read from it. Cit = NC(=O)NCCC[C@H](N)C(=O)O
What was measured:
HLA-DRB1*04:01 = biological target: T1, HLA-DRB1*04:01 (Homo sapiens, UniProt P01903+P01911, A100K/A169T/F76Y/I96L/K127E/L162R/M171V/N62H/P40V/Q125Y/R42H/S133A/S149N/S66Y/V115G/V209L/W38E); assay: HLA class II peptide binding, inhibition of radiolabeled peptide binding to purified MHC
T1 construct: EBV transformed homozygous cell lines were used as sources of MHC molecules; endogenous in cells; host or cells: EBV transformed homozygous cell lines

HLA-DRB1*01:01 = biological target: T2, HLA-DRB1*01:01 (Homo sapiens, UniProt P01903+P01911, A100R/D57E/F55L/F60I/F76Y/I96L/L162R/M171V/P40L/Q125E/R42F/V115G/Y59C); assay: as above
T2 construct: EBV transformed homozygous cell lines were used as sources of MHC molecules; endogenous in cells; host or cells: EBV transformed homozygous cell lines

[1] = citrullinated 15-mer (X), purified MHC, inhibition of radiolabeled peptide binding, dash = IC50 >40,000 nM, read-out: DRB1*04:01 binding capacity, Cit peptide (IC50 nM)
[2] = citrullinated 15-mer (X), purified MHC, inhibition of radiolabeled peptide binding, dash = IC50 >40,000 nM, read-out: DRB1*01:01 binding capacity, Cit peptide (IC50 nM)
[3] = read-out: DRB1*04:01 binding capacity, WT peptide (IC50 nM)
[4] = read-out: DRB1*01:01 binding capacity, WT peptide (IC50 nM)

Row | SMILES | IC50 (HLA-DRB1*04:01; [1]) [nM] | IC50 (HLA-DRB1*01:01; [2]) [nM] | further results
1 | CC(C)C[C@H](NC(=O)[C@H](CC(C)C)NC(=O)[C@@H](NC(=O)[C@H](CC(C)C)NC(=O)[C@H](CC(C)C)NC(=O)[C@@H](N)C(C)C)[C@@H](C)O)C(=O)N[C@H](C(=O)N[C@@H](C)C(=O)N[C@@H](C)C(=O)N[C@H](C(=O)N[C@@H](CC(C)C)C(=O)N[C@@H](CCCNC(N)=O)C(=O)N[C@@H](CS)C(=O)N[C@@H](CCC(N)=O)C(=O)NCC(=O)O)C(C)C)C(C)C [VLLTLLVAAVLXCQG] (H-VLLTLLVAAVL[Cit]CQG-OH) | – | – | IC50 (HLA-DRB1*04:01; citrullinated 15-mer peptide (X = citrulline), purified HLA-DRB1*04:01, read-out: DRB1*04:01 binding capacity, Cit peptide (IC50 nM)): > 40000 nM; IC50 (HLA-DRB1*01:01; citrullinated 15-mer peptide (X = citrulline), purified HLA-DRB1*01:01, read-out: DRB1*01:01 binding capacity, Cit peptide (IC50 nM)): 29 nM
2 | CC(C)C[C@H](NC(=O)[C@H](C)NC(=O)[C@H](CO)NC(=O)CNC(=O)[C@H](CC(C)C)NC(=O)[C@H](CO)NC(=O)[C@H](Cc1ccc(O)cc1)NC(=O)[C@@H](NC(=O)[C@H](CCCNC(=N)N)NC(=O)[C@@H](NC(=O)[C@H](CO)NC(=O)[C@@H](NC(=O)[C@@H](NC(=O)[C@@H](N)C(C)C)[C@@H](C)O)[C@@H](C)O)[C@@H](C)O)[C@@H](C)O)C(=O)N[C@@H](CCCNC(N)=O)C(=O)O [VTTSTRTYSLGSALX] (H-VTTSTRTYSLGSAL[Cit]-OH) | 847 | 9.6 | –
3 | CC(C)C[C@H](NC(=O)[C@H](C)NC(=O)[C@H](CO)NC(=O)CNC(=O)[C@H](CC(C)C)NC(=O)[C@H](CO)NC(=O)[C@H](Cc1ccc(O)cc1)NC(=O)[C@@H](NC(=O)[C@H](CCCNC(N)=O)NC(=O)[C@@H](NC(=O)[C@H](CO)NC(=O)[C@@H](NC(=O)[C@@H](NC(=O)[C@@H](N)C(C)C)[C@@H](C)O)[C@@H](C)O)[C@@H](C)O)[C@@H](C)O)C(=O)N[C@@H](CCCNC(=N)N)C(=O)O [VTTSTXTYSLGSALR] (H-VTTST[Cit]TYSLGSALR-OH) | 1480 | 7.2 | –
4 | CC[C@H](C)[C@H](NC(=O)[C@H](CCCCN)NC(=O)[C@H](CC(N)=O)NC(=O)[C@H](CCC(N)=O)NC(=O)[C@H](CCC(N)=O)NC(=O)[C@H](CCC(=O)O)NC(=O)[C@H](CC(C)C)NC(=O)[C@H](Cc1ccccc1)NC(=O)[C@H](CCCNC(N)=O)NC(=O)[C@@H](N)C(C)C)C(=O)N[C@@H](CC(C)C)C(=O)N[C@@H](CC(C)C)C(=O)N[C@@H](C)C(=O)N[C@@H](CCC(=O)O)C(=O)N[C@@H](CC(C)C)C(=O)O [VXFLEQQNKILLAEL] | 6590 | 7.8 | –
5 | CC(C)C[C@H](NC(=O)[C@H](C)NC(=O)[C@H](CO)NC(=O)CN)C(=O)N[C@@H](CCCNC(=N)N)C(=O)N1CCC[C@H]1C(=O)N[C@@H](CO)C(=O)N[C@H](C(=O)N[C@@H](CO)C(=O)N[C@@H](CCCNC(=N)N)C(=O)N[C@@H](CO)C(=O)N[C@@H](CC(C)C)C(=O)N[C@@H](Cc1ccc(O)cc1)C(=O)N[C@@H](C)C(=O)N[C@@H](CO)C(=O)O)[C@@H](C)O [Vimentin 41 WT] | – | – | IC50 (HLA-DRB1*04:01; [3]): 860 nM; IC50 (HLA-DRB1*01:01; [4]): 3.4 nM
6 | CC(C)C[C@H](NC(=O)[C@H](CO)NC(=O)[C@H](CCCNC(=N)N)NC(=O)[C@H](CO)NC(=O)[C@@H](NC(=O)[C@H](CO)NC(=O)[C@@H]1CCCN1)[C@@H](C)O)C(=O)N[C@@H](Cc1ccc(O)cc1)C(=O)N[C@@H](C)C(=O)N[C@@H](CO)C(=O)N[C@@H](CO)C(=O)N1CCC[C@H]1C(=O)NCC(=O)NCC(=O)N[C@H](C(=O)O)C(C)C [Vimentin 46 WT] | – | – | IC50 (HLA-DRB1*04:01; [3]): 1050 nM; IC50 (HLA-DRB1*01:01; [4]): 290 nM

Further lines, with some results ahead:

Row | IC50 (HLA-DRB1*04:01; [1]) [nM] | IC50 (HLA-DRB1*01:01; [2]) [nM] | SMILES | further results
7 | 974 | 60 | CSCC[C@H](NC(=O)[C@H](CCCNC(N)=O)NC(=O)[C@H](CCCNC(=N)N)NC(=O)[C@H](Cc1ccc(O)cc1)NC(=O)[C@H](CO)NC(=O)[C@H](CO)NC(=O)[C@H](CO)NC(=O)[C@H](CO)NC(=O)[C@@H](N)C(C)C)C(=O)N[C@@H](Cc1ccccc1)C(=O)NCC(=O)NCC(=O)N1CCC[C@H]1C(=O)NCC(=O)N[C@H](C(=O)O)[C@@H](C)O [VSSSSYRXMFGGPGT] (H-VSSSSYR[Cit]MFGGPGT-OH) | –
8 | 906 | 37 | CSCC[C@H](NC(=O)[C@H](CCCNC(=N)N)NC(=O)[C@H](CCCNC(N)=O)NC(=O)[C@H](Cc1ccc(O)cc1)NC(=O)[C@H](CO)NC(=O)[C@H](CO)NC(=O)[C@H](CO)NC(=O)[C@H](CO)NC(=O)[C@@H](N)C(C)C)C(=O)N[C@@H](Cc1ccccc1)C(=O)NCC(=O)NCC(=O)N1CCC[C@H]1C(=O)NCC(=O)N[C@H](C(=O)O)[C@@H](C)O [VSSSSYXRMFGGPGT] (H-VSSSSY[Cit]RMFGGPGT-OH) | –

From paper PMC5421785, “Citrullination only infrequently impacts peptide binding to HLA class II MHC” (PLoS ONE, 2017)
